Measured values taken from publication PMC12593371, “Whole-Body Disposition and Metabolism of [^14C]-2,4,4′-Trichlorobiphenyl (PCB28) Following Lung Administration in Rats” (Environmental Science & Technology, 2025).

Legend:
[1] = Mass balance and whole-body tissue distribution of radioactivity after intratracheal [14C]-PCB28; format: in vivo, Male Sprague–Dawley rats; settings: for contribution of adipose tissue to total radioactivity: 720 min; for share of the remaining radioactivity: 12 min
Text: Male Sprague–Dawley rats (8 weeks old) weighing 230–285 g (mean of 256 g) were used in this study (Envigo, Indianapolis, IN). Male rats were selected to maintain consistency with previous toxicokinetic investigations of lower-chlorinated PCBs, specifically the study on intratracheally instilled ^14C-labeled dichlorinated PCB11, which also utilized male rats. This approach facilitated direct comparison across studies and contributed to a more comprehensive toxicokinetic data set for LC-PCBs following inhalation exposure. A PCB toxicokinetic study being published separately investigated placental transfer and fetal uptake in pregnant females. All animals were handled in compliance with an approved Institutional Animal Care and Use Committee protocol (protocol#: 3091097 approved on 10/12/2023). Rats were pair-housed in a light and temperature-controlled environment with access to food and water ad libitum. After 1 week of acclimatization, rats were assigned to either a high-dose (HD) group (n = 9) or a low-dose (LD) group (n = 5) at random. Control rats (n = 3) were exposed to a single dose of unlabeled PCB28 (42 μg in 200 μL) and necropsied 50 min after exposure to establish background levels for radioactivity calculations in blank tissues. […] Therefore, animal numbers were customized between groups to most efficiently utilize the limited available ^14C-PCB28 stock in our lab.
(§1) Animals in the HD group were intratracheally (i.t.) administered 42 μg of a one-time single dose of [^14C]-PCB28 in 200 μL of vehicle, while animals in the LD group received 4.2 μg of [^14C]-PCB28 in 100 μL of vehicle. The i.t. route for dosing was selected due to the limited availability and extraordinary cost of the radiolabeled PCB28, and to avoid ^14C contamination of the inhalation exposure apparatus. All i.t. instillation was performed under light anesthesia (4% isoflurane via a precision vaporizer Fortec, Cyprane, Keighley, UK). Rats recovered from the anesthesia within 2 min while held within a cylindrical glass chamber (2 L), equipped with drainage ports to facilitate urine collection and a metallic screen to segregate urine from feces (as illustrated in Figure S1). Air was drawn from the chamber at 6.0 L/min through a cartridge containing XAD-2 polymeric resin (Amberlite, Millipore Sigma, Burlington, MA) to capture any exhaled [^14C]-PCB28. For the longer time points (720 and 1440 min), individual rats were placed in metabolic cages following a similar protocol for excreta and exhaled breath collection. After exposure, the inner walls of the chamber were rinsed separately with water, acetone, and hexane (25 – 45 mL) and wiped to measure radioactivity. Rat fur was also wiped and analyzed for radioactivity. The rats exposed to the HD were euthanized using isoflurane and exsanguination via cardiac puncture at 12, 25, 50, 100, 200, 400, 720, and 1440 min postexposure (n = 1 per time point except n = 2 for 200 min). Animals exposed to the LD were similarly necropsied at time points of 2, 12, 50, 200, and 720 min postexposure (n = 2). Euthanasia was consistently performed during the light cycle, except in the case of the 720 min time point, wherein euthanasia occurred outside the light cycle.
Serum and blood cells were separated. Two to six technical replicates were collected from 36 tissue types and digestive matter (diluted in ultrapure water) from 5 different GI tract locations. Muscle and adipose tissue samples were obtained from various locations. The collected tissue samples were placed in scintillation vials containing 1 mL of solvable cocktail and kept at 37 °C overnight for complete solubilization. To enable subsequent analyses, the solubilized tissue samples underwent a 2-h heating phase at 50 °C. For the bone, feces, and digestive matter, 1 mL of isopropyl alcohol was added. For samples displaying darker coloration, a controlled volume of 30% hydrogen peroxide (100 to 300 μL) was slowly added in increments to remove potential interference. […]

[2] = Fractionation of parent PCB28 and metabolites in serum, liver, adipose and kidney (liquid scintillation counting); format: in vivo, Male Sprague–Dawley rats; settings: for peak concentration of parent compound in serum: 12 min
Procedure: as §1
Extractions of parent PCB28 and its hydroxylated, methyl sulfone, and conjugated metabolites in serum, liver, adipose, and kidney samples were conducted using our previous protocol. Individual extractable metabolites were separated using a series of liquid–liquid extractions, employing a graded array of solvents with increasing polarity to facilitate the partitioning of the analytes according to their inherent lipophilic characteristics (Figure S2). Subsequently, individual fractions were classified into respective categories, including the native PCB moiety, hydroxylated PCB (OH-PCB), methyl sulfonyl-PCB (MeSO2-PCB), conjugated metabolites, and unextractable components. Analytical recoveries were quantified for each extraction and separation step. Tissue samples (200–400 mg wet weight) were prepared for analysis in a two-step homogenization process using 2 mL of hexane/acetone solvent (50:50, vol/vol). The resultant solution was centrifuged, and then the pellet underwent two successive extractions with 1.5 mL of dichloromethane (DCM), chloroform/methanol (50:50 vol/vol), methanol/water (50:50 vol/vol), and water, respectively. […] The residual hydrophobic phase was quantified as native PCB28. The quantification of unlabeled PCB28, OH-PCBs (as MeO-PCB derivatives), and MeSO2–PCBs in standards spiked samples was performed on a gas chromatograph (Agilent 6890N) equipped with a ^63Ni μ-ECD detector and SLB-5MS capillary column (60 m × 0.25 mm I.D., 0.25 μm film thickness; Supelco, St Louis, MO). […]

[3] = design: method as in previously reported (number not given); settings: oral exposure to a PCB mixture; ref previously reported (number not given); cited from earlier work

Clc1ccc(-c2ccc(Cl)cc2Cl)cc1 [PCB28, 2,4,4′-trichlorobiphenyl]
contribution of adipose tissue to total radioactivity ([1]; high dose): 30%
contribution of adipose tissue to total radioactivity ([1]; low dose): 28%
share of the retained radioactivity sequestered in skin and adipose tissue ([1]; 24 h): 67–77%
total radioactivity remaining within the body ([1]; 24 h): 88–92%
administered dose excreted via urine and feces ([1]; 24 h study): less than 4%
retention in the body or apparent bioavailability using fecal excretion ([1]; 24 h study): 92%
increase of adipose [14C] concentration throughout the entire time course ([1]; high dose): 6.5 fold
increase of adipose [14C] concentration throughout the entire time course ([1]; low dose): 21 fold
reduction of quantified radioactivity between 12 and 50 min ([1]; blood): 37–67%
total radioactivity excreted in the feces ([1]; by the end of the 24 h study period / at any time point): no more than 4%
time of peak concentration ([1]; duodenum digestive matter, both doses): 50 min
apparent bioavailability ([1]; from fecal excretion, 24 h): up to 96%
nominal recovered radioactivity of the administered dose in the collected tissues ([1]; high dose (42 μg i.t.)): 83 ± 5%
exhaled breath, share of the total recovered radioactivity ([1]; intratracheal dosing): 0.07 ± 0.04%
pulmonary uptake ([1]; intratracheal lung dosing): 99.9 ± 3.5%
reduction of quantified radioactivity between 12 and 50 min ([1]; kidney): 36–69%
reduction of quantified radioactivity between 12 and 50 min ([1]; liver): 41–58%
share of the remaining radioactivity ([1]; liver, high dose): 16.8%
share of the remaining radioactivity ([1]; liver, low dose): 20.6%
nominal recovered radioactivity of the administered dose in the collected tissues ([1]; low dose (4.2 μg i.t.)): 74 ± 13%
reduction of quantified radioactivity between 12 and 50 min ([1]; lung): 56–73%
share of the remaining radioactivity ([1]; muscle plus liver, high dose): ~52.1%
share of the remaining radioactivity ([1]; muscle, high dose): 35.3%
share of the remaining radioactivity ([1]; pulmonary regions, low dose): 16.7%
more radioactivity retained in serum at the low dose than at the high dose ([1]; serum, same time point): 92%
time of peak radioactivity ([1]; stomach matter): 50 min
increase of parent PCB28 concentration over the entire study time course ([2]; adipose tissue, high dose): 9 fold
increase of parent PCB28 concentration between 200 and 720 min ([2]; adipose tissue, low dose): 3 fold
increase of parent PCB28 concentration over the entire study time course ([2]; adipose tissue, low dose): 36 fold
peak concentration of parent compound in serum ([2]; high dose): 47 dpm/mg
peak concentration of parent compound in serum ([2]; low dose): 7.6 dpm/mg
time of peak adipose concentration [3]: 24 h
